Read-outs that look alike come from different tables or passages of the source.
Key:
Saccharomyces cerevisiae [1] = assay: MIC/MFC broth microdilution (CLSI); type: cell-based; details: Saccharomyces cerevisiae S288c
Method: (§1) Antifungal susceptibility was determined by broth microdilution according to the CLSI guidelines described in M27-Ed4 ([16]). […] MFC was determined by back-plating drug-treated cultures from MIC broths onto SDA plates. The MFC was defined as the lowest concentration from which no colonies could be cultured.

Candida albicans [2] = assay: MIC/MFC broth microdilution (CLSI); type: cell-based; details: Candida albicans SC5314
Method: as §1

[3] = test system: Cryptococcus deuterogattii; assay: checkerboard drug interaction (FICI, MICc);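 as to all read-outs here: simplified diagonal checkerboard screen pairing antifungal drugs with FPPS inhibitors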; type: cell-based; details: C. deuterogattii; for INH FD (MIC-MICc fold decrease): fold decrease of inhibitor MIC
Method: (§2) Drug interactions between antifungals and FPPS inhibitors were investigated using a simplified checkerboard diagonal screening method ([45]). […] FICIs were determined according to the Loewe additivity model ([17]).

Cryptococcus neoformans [4] = assay: checkerboard drug interaction (FICI, MICc);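 as to all read-outs here: antifungal plus FPPS inhibitor pairs tested against Cryptococcus neoformans by simplified diagonal checkerboard screening, FICI computed under the Loewe additivity model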; type: cell-based; details: C. neoformans; for INH FD (MIC-MICc fold decrease): fold decrease of inhibitor MIC
Method: as §2

Saccharomyces cerevisiae [5] = assay: checkerboard drug interaction (FICI, MICc); type: cell-based; design: INH MICc / INH MICc (ITR:INH) / INH MICc (KET:INH) / INH MICc (FLC:INH): unit not given beside the values;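 also: simplified diagonal checkerboard screen pairing antifungals with FPPS inhibitors, FICI calculated under the Loewe additivity model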
Candida glabrata [6] = assay: checkerboard drug interaction (FICI, MICc);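 as to all read-outs here: simplified diagonal checkerboard screen pairing antifungals with FPPS inhibitors, FICI calculated under the Loewe additivity model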; type: cell-based; details: C. glabrata; for INH FD (MIC-MICc fold decrease): fold decrease of inhibitor MIC
Method: as §2

Candida albicans [7] = assay: checkerboard drug interaction (FICI, MICc);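 as to all read-outs here: antifungal plus FPPS inhibitor combinations on Candida albicans tested by a simplified diagonal checkerboard screen, with FICI calculated under the Loewe additivity model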; type: cell-based; details: C. albicans; for INH FD (MIC-MICc fold decrease): fold decrease of inhibitor MIC
Method: as §2

Aspergillus flavus [8] = assay: checkerboard drug interaction (FICI, MICc);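 also: simplified diagonal checkerboard screen pairing azole antifungals with FPPS inhibitors, FICI calculated under the Loewe additivity model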; type: cell-based; design: INH MICc (KET:INH) / INH MICc (FLC:INH): unit not given beside the values; details: A. flavus
Aspergillus fumigatus [9] = assay: checkerboard drug interaction (FICI, MICc); type: cell-based;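 also: simplified diagonal checkerboard screen pairing antifungals with FPPS inhibitors against Aspergillus fumigatus, with FICI calculated under the Loewe additivity model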
Method: as §2

Trichophyton rubrum [10] = assay: checkerboard drug interaction (FICI, MICc);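 also: simplified diagonal checkerboard screen pairing azole antifungals with FPPS inhibitors, FICI calculated under the Loewe additivity model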; type: cell-based; details: T. rubrum
Method: as §2

HEK-293T cells = assay: MTT reduction cytotoxicity assay; type: cell-based; details: Homo sapiens, HEK-293T, 72 h, HEK-293T, MTT, 72 h; read-out: HEK IC50
eight fungal species [11] = assay: MIC/MFC summary across the eight fungal species of Table 1; type: cell-based
Method: The antifungal activity of these compounds was evaluated according to CLSI guidelines ([16]).

eight fungal species [12] = assay: checkerboard interaction with azoles, summary across the eight species; type: cell-based; details: geometric mean MIC in combination with azoles
Description: Synergy between lipophilic FPPS inhibitors and azole antifungals was investigated by determining the fractional inhibitory concentration index (FICI) (Fig. 2; Table S1 Fig. S1) ([17]). […]. Derivatives PLA9 and 11, and PDA9, 11, and 12 antagonized azoles in C. albicans, C. neoformans, and C. deuterogattii, yet were largely synergistic in C. glabrata and S. cerevisiae. […].

[13] = test system: Cryptococcus deuterogattii; assay: MIC/MFC broth microdilution (CLSI); details: Cryptococcus deuterogattii;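 also: broth microdilution per CLSI M27-Ed4. MFC is the lowest concentration yielding no colonies when MIC broths are subcultured onto SDA plates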
Method: as §1

Cryptococcus neoformans [14] = assay: MIC/MFC broth microdilution (CLSI); details: Cryptococcus neoformans;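 also: susceptibility testing followed the CLSI M27-Ed4 broth microdilution document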
Method: as §1

Candida glabrata [15] = assay: MIC/MFC broth microdilution (CLSI); details: Nakaseomyces glabratus, CBS138;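 also: broth microdilution following CLSI M27-Ed4, MFC taken as the lowest drug level yielding no growth once MIC wells were subcultured on SDA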
Method: as §1

Aspergillus flavus [16] = assay: MIC/MFC broth microdilution (CLSI); details: ATCC204304
Method: as §1

Aspergillus fumigatus [17] = assay: MIC/MFC broth microdilution (CLSI); details: ATCC204305
Method: as §1

Trichophyton rubrum [18] = assay: MIC/MFC broth microdilution (CLSI); details: Trichophyton rubrum
Method: as §1

[19] = FLC:INH combination, MIC of the inhibitor in combination with FLC
[20] = FLC:INH combination, fold decrease of FLC MIC
[21] = ITR:INH combination, MIC of the inhibitor in combination with ITR
[22] = ITR:INH combination, fold decrease of ITR MIC
[23] = KET:INH combination, MIC of the inhibitor in combination with KET
[24] = KET:INH combination, fold decrease of KET MIC
[25] = Fractional Inhibitory Concentration Index, fluconazole + inhibitor
[26] = Fractional Inhibitory Concentration Index, itraconazole + inhibitor
[27] = Fractional Inhibitory Concentration Index, ketoconazole + inhibitor
[28] = MIC of the inhibitor in combination with fluconazole
[29] = MIC of the inhibitor in combination with itraconazole
[30] = MIC of the inhibitor in combination with ketoconazole
[31] = MIC-MICc fold decrease of fluconazole, negative = increase
[32] = MIC-MICc fold decrease of itraconazole, negative = increase
[33] = MIC-MICc fold decrease of ketoconazole, negative = increase
[34] = MIC-MICc fold decrease of the inhibitor, with fluconazole
[35] = MIC-MICc fold decrease of the inhibitor, with itraconazole
[36] = MIC-MICc fold decrease of the inhibitor, with ketoconazole

SMILES: CCCCCCCCCCCN1CCC[C@H]1C(=O)N[C@H](CC(=O)O)C(=O)O [PDA11]
- MFC (Saccharomyces cerevisiae [1]): > 128 µg/mL
- MIC (Saccharomyces cerevisiae [1]): > 128 µg/mL
- MFC (Candida albicans [2]): > 128 µg/mL
- MIC (Candida albicans [2]): > 128 µg/mL
- FICI ([3]; FLC:INH combination): ≥4
- INH MICc [3, 19]: 256
- FLC FD (MIC-MICc fold decrease) [3, 20]: -4
- INH FD (MIC-MICc fold decrease) ([3]; FLC:INH combination): 1
- FICI ([3]; ITR:INH combination): ≥4
- INH MICc [3, 21]: 256
- ITR FD (MIC-MICc fold decrease) [3, 22]: < -4
- INH FD (MIC-MICc fold decrease) ([3]; ITR:INH combination): 1
- FICI ([3]; KET:INH combination): 1
- INH MICc [3, 23]: 128
- KET FD (MIC-MICc fold decrease) [3, 24]: 2
- INH FD (MIC-MICc fold decrease) ([3]; KET:INH combination): 2
- FICI (Cryptococcus neoformans [4]; FLC:INH combination): ≥4
- INH MICc (Cryptococcus neoformans [4]; [19]): 256
- FLC FD (MIC-MICc fold decrease) (Cryptococcus neoformans [4]; [20]): < -4
- INH FD (MIC-MICc fold decrease) (Cryptococcus neoformans [4]; FLC:INH combination): 1
- FICI (Cryptococcus neoformans [4]; ITR:INH combination): ≥4
- INH MICc (Cryptococcus neoformans [4]; [21]): 256
- ITR FD (MIC-MICc fold decrease) (Cryptococcus neoformans [4]; [22]): < -4
- INH FD (MIC-MICc fold decrease) (Cryptococcus neoformans [4]; ITR:INH combination): 1
- FICI (Cryptococcus neoformans [4]; KET:INH combination): ≥4
- INH MICc (Cryptococcus neoformans [4]; [23]): 128
- KET FD (MIC-MICc fold decrease) (Cryptococcus neoformans [4]; [24]): -4
- INH FD (MIC-MICc fold decrease) (Cryptococcus neoformans [4]; KET:INH combination): 2
- FICI (FLC:INH) (Saccharomyces cerevisiae [5]; [25]): 0.5
- FICI (ITR:INH) (Saccharomyces cerevisiae [5]; [26]): 1.5
- FICI (KET:INH) (Saccharomyces cerevisiae [5]; [27]): 0.5
- INH MICc (FLC:INH) (Saccharomyces cerevisiae [5]; [28]): 64
- INH MICc (ITR:INH) (Saccharomyces cerevisiae [5]; [29]): 128
- INH MICc (KET:INH) (Saccharomyces cerevisiae [5]; [30]): 64
- FLC FD (FLC:INH) (Saccharomyces cerevisiae [5]; [31]): 4
- ITR FD (ITR:INH) (Saccharomyces cerevisiae [5]; [32]): 1
- KET FD (KET:INH) (Saccharomyces cerevisiae [5]; [33]): 4
- INH FD (FLC:INH) (Saccharomyces cerevisiae [5]; [34]): 4
- INH FD (ITR:INH) (Saccharomyces cerevisiae [5]; [35]): 2
- INH FD (KET:INH) (Saccharomyces cerevisiae [5]; [36]): 4
- FICI (Candida glabrata [6]; FLC:INH combination): 0.63
- INH MICc (Candida glabrata [6]; [19]): 8
- FLC FD (MIC-MICc fold decrease) (Candida glabrata [6]; [20]): 2
- INH FD (MIC-MICc fold decrease) (Candida glabrata [6]; FLC:INH combination): 32
- FICI (Candida glabrata [6]; ITR:INH combination): 0.28
- INH MICc (Candida glabrata [6]; [21]): 2
- ITR FD (MIC-MICc fold decrease) (Candida glabrata [6]; [22]): 4
- INH FD (MIC-MICc fold decrease) (Candida glabrata [6]; ITR:INH combination): 128
- FICI (Candida glabrata [6]; KET:INH combination): 0.28
- INH MICc (Candida glabrata [6]; [23]): 2
- KET FD (MIC-MICc fold decrease) (Candida glabrata [6]; [24]): 4
- INH FD (MIC-MICc fold decrease) (Candida glabrata [6]; KET:INH combination): 128
- FICI (Candida albicans [7]; FLC:INH combination): ≥4
- INH MICc (Candida albicans [7]; [19]): 128
- FLC FD (MIC-MICc fold decrease) (Candida albicans [7]; [20]): < -4
- INH FD (MIC-MICc fold decrease) (Candida albicans [7]; FLC:INH combination): 2
- FICI (Candida albicans [7]; ITR:INH combination): ≥4
- INH MICc (Candida albicans [7]; [21]): 128
- ITR FD (MIC-MICc fold decrease) (Candida albicans [7]; [22]): < -4
- INH FD (MIC-MICc fold decrease) (Candida albicans [7]; ITR:INH combination): 2
- FICI (Candida albicans [7]; KET:INH combination): ≥4
- INH MICc (Candida albicans [7]; [23]): 64
- KET FD (MIC-MICc fold decrease) (Candida albicans [7]; [24]): < -4
- INH FD (MIC-MICc fold decrease) (Candida albicans [7]; KET:INH combination): 4
- FICI (FLC:INH) (Aspergillus flavus [8]; [25]): 1
- FICI (ITR:INH) (Aspergillus flavus [8]; [26]): 2
- FICI (KET:INH) (Aspergillus flavus [8]; [27]): 0.75
- INH MICc (FLC:INH) (Aspergillus flavus [8]; [28]): 128
- INH MICc (ITR:INH) (Aspergillus flavus [8]; [29]): 256
- INH MICc (KET:INH) (Aspergillus flavus [8]; [30]): 64
- FLC FD (FLC:INH) (Aspergillus flavus [8]; [31]): 2
- ITR FD (ITR:INH) (Aspergillus flavus [8]; [32]): 1
- KET FD (KET:INH) (Aspergillus flavus [8]; [33]): 2
- INH FD (FLC:INH) (Aspergillus flavus [8]; [34]): 2
- INH FD (ITR:INH) (Aspergillus flavus [8]; [35]): 1
- INH FD (KET:INH) (Aspergillus flavus [8]; [36]): 4
- FICI (FLC:INH) (Aspergillus fumigatus [9]; [25]): 2
- FICI (ITR:INH) (Aspergillus fumigatus [9]; [26]): 0.51
- FICI (KET:INH) (Aspergillus fumigatus [9]; [27]): 1.5
- INH MICc (FLC:INH) (Aspergillus fumigatus [9]; [28]): 256
- INH MICc (ITR:INH) (Aspergillus fumigatus [9]; [29]): 2
- INH MICc (KET:INH) (Aspergillus fumigatus [9]; [30]): 128
- FLC FD (FLC:INH) (Aspergillus fumigatus [9]; [31]): 1
- ITR FD (ITR:INH) (Aspergillus fumigatus [9]; [32]): 2
- KET FD (KET:INH) (Aspergillus fumigatus [9]; [33]): 1
- INH FD (FLC:INH) (Aspergillus fumigatus [9]; [34]): 1
- INH FD (ITR:INH) (Aspergillus fumigatus [9]; [35]): 128
- INH FD (KET:INH) (Aspergillus fumigatus [9]; [36]): 2
- FICI (FLC:INH) (Trichophyton rubrum [10]; [25]): 3
- FICI (ITR:INH) (Trichophyton rubrum [10]; [26]): 2
- FICI (KET:INH) (Trichophyton rubrum [10]; [27]): 3
- INH MICc (FLC:INH) (Trichophyton rubrum [10]; [28]): 256
- INH MICc (ITR:INH) (Trichophyton rubrum [10]; [29]): 256
- INH MICc (KET:INH) (Trichophyton rubrum [10]; [30]): 256
- FLC FD (FLC:INH) (Trichophyton rubrum [10]; [31]): -2
- ITR FD (ITR:INH) (Trichophyton rubrum [10]; [32]): 1
- KET FD (KET:INH) (Trichophyton rubrum [10]; [33]): -2
- INH FD (FLC:INH) (Trichophyton rubrum [10]; [34]): 1
- INH FD (ITR:INH) (Trichophyton rubrum [10]; [35]): 1
- INH FD (KET:INH) (Trichophyton rubrum [10]; [36]): 1
- IC50 (HEK-293T cells): > 256 µg/mL
- MFC (eight fungal species [11]; across eight species, read-out: Geometric mean MFC): > 128 µg/mL
- MIC (eight fungal species [11]; geometric mean across eight species, read-out: GM fungal MIC): > 128 µg/mL
- MIC (eight fungal species [11]; read-out: Geometric mean MIC): > 128 µg/mL
- GM fungal MICc (eight fungal species [12]): 78.3
- MFC [13]: > 128 µg/mL
- MIC [13]: > 128 µg/mL
- MFC (Cryptococcus neoformans [14]): > 128 µg/mL
- MIC (Cryptococcus neoformans [14]): > 128 µg/mL
- MFC (Candida glabrata [15]): > 128 µg/mL
- MIC (Candida glabrata [15]): > 128 µg/mL
- MFC (Aspergillus flavus [16]): > 128 µg/mL
- MIC (Aspergillus flavus [16]): > 128 µg/mL
- MFC (Aspergillus fumigatus [17]): > 128 µg/mL
- MIC (Aspergillus fumigatus [17]): > 128 µg/mL
- MFC (Trichophyton rubrum [18]): > 128 µg/mL
- MIC (Trichophyton rubrum [18]): > 128 µg/mL

Reference: PMC12892976, “Alkylation-based optimization of antifungal FPPS inhibitors yields a potent, broad-spectrum lipophilic zoledronate derivative” (mBio, 2025)
